Experimental data: US10300067B2, “Tetrahydropyridopyrimidine compound or salt thereof” (TAIHO PHARMACEUTICAL CO., LTD., priority 2014, dated 2019)

Key:
[1] = molecular target: human androgen receptor (Homo sapiens (Human), UniProt P10275); experiment: Antagonist activity for AR (pMMTV-luc reporter transcription activity in transfected COS-7 cells, DHT 1 nmol/L); assay type: cell-based; settings: for IC50: 50% transcription activity inhibition concentration, COS-7 cells with pMMTV-luc and pEX-hAR, DHT 1 nmol/L, 24 hours
Sequence of human androgen receptor (P10275 whole entry): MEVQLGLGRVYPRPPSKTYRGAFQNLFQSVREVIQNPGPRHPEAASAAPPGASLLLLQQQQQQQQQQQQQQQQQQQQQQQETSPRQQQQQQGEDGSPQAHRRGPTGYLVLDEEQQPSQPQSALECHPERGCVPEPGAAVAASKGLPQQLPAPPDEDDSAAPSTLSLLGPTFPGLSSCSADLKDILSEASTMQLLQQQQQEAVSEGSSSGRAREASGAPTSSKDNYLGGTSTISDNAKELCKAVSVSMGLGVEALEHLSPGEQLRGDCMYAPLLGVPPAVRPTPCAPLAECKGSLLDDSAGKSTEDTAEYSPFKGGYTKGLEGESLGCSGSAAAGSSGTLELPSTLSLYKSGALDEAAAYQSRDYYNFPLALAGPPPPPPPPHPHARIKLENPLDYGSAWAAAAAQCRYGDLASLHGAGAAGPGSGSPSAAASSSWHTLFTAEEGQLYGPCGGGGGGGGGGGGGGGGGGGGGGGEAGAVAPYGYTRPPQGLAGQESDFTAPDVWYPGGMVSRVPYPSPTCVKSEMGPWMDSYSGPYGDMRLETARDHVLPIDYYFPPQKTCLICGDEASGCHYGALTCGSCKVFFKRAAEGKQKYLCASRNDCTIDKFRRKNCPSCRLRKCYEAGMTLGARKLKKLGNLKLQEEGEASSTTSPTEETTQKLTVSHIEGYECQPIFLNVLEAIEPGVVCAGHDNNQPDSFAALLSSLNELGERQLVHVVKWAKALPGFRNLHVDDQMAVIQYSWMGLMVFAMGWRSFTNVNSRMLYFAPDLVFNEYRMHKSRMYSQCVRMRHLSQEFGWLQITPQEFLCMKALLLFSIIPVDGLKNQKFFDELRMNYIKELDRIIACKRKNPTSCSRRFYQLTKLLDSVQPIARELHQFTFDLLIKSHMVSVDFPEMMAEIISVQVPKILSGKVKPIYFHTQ
Procedure: Antagonist activity for AR was evaluated according to the following method. COS-7 cells (ATCC) were transfected with pMMTV-luc vector (reporter plasmid having, as an androgen response element, […] long terminal repeat) and pEX-hAR vector (human androgen receptor expression vector: which expresses human AR gene under control of CMV promoter) by using Nucleofector (registered trademark) Kit R (Lonza) as a transfection reagent and Amaxa (Lonza). The COS-7 cells obtained after transfection were seeded in a clear bottom 96 well microplate (BD) at 1.5×10^4/well with phenol red free RPMI1640 containing 10% charcoal-treated fetal bovine serum (hereinbelow, DCC-FBS) (hereinbelow, the medium is referred to as an evaluation medium), and then cultured overnight. […] Then, the transcription activity value was measured. The transcription activity was measured by using Bright-Glo™ Luciferase Assay System (Promega).

[2] = system: AR positive human prostate cancer cells VCaP; experiment: Agonist activity for AR (cell proliferation rate of VCaP cells); assay type: cell-based; settings: 72 hours, 2 to 10000 nmol/L, more than 10% at any concentration = agonist activity for AR
Procedure: AR positive human prostate cancer cells VCaP (In Vivo 15:163-168, 2001) were seeded in a clear bottom 96 well microplate (BD) at 1.5×10^4/well with phenol red free RPMI1640 containing 5% DCC-FBS (hereinbelow, the medium is referred to as an evaluation medium), and then cultured overnight. The culture was added with the evaluation medium containing the compound of Examples or the compound of Comparative Examples (final concentration of the compound of Examples or the compound of Comparative Examples: 2, 5, 14, 41, 123, 370, 1111, 3333, or 10000 nmol/L), followed by culture for 72 hours. Then, the number of viable cells was counted (test group). As a control, the cells were cultured after being added with the evaluation medium only, and the number of viable cells was counted (control group). The number of viable cells was measured by using CellTiter-Glo™ Luminescent Cell Viability Assay (Promega). From the measured number of viable cells, cell proliferation rate with respect to the compound of Examples or the compound of Comparative Examples was calculated based on the number of viable cells measured in the case of using the evaluation medium only. Cell proliferation rate (%) =(Number of viable cells in test group−Number of viable cells in control group)/(Number of viable cells in control group)×100
By considering an error in the number of viable cells measured in the case of using the evaluation medium only, when the cell proliferation rate was more than 10% at any concentration of the 9 concentrations which had been evaluated, it was determined to have an agonist activity for AR.

CC(C)(O)c1ccc(Nc2ncnc3c2CCN(c2ccc(C#N)cc2Cl)C3)nc1 [Comparative Example 5, 3-Chloro-4-(4-((5-(2-hydroxypropan-2-yl)pyridin-2-yl)amino)-5,6-dihydropyrido[3,4-d]pyrimidin-7(8H)-yl)benzonitrile, reference compound]
IC50 [1]: > 10000 nM

CC(C)(O)c1ccc(Nc2ncnc3c2CCN(c2cc(Cl)cc(C#N)c2)C3)nc1 [Comparative Example 6, 3-Chloro-5-(4-((5-(2-hydroxypropan-2-yl)pyridin-2-yl)amino)-5,6-dihydropyrido[3,4-d]pyrimidin-7 (8H)-yl)benzonitrile, reference compound]
IC50 [1]: > 10000 nM

CC(C)(O)c1ccc(Nc2ncnc3c2CCN(c2cccc(Cl)c2C#N)C3)nc1 [Comparative Example 7, 2-Chloro-6-(4-((5-(2-hydroxypropan-2-yl)pyridin-2-yl)amino)-5,6-dihydropyrido[3,4-d]pyrimidin-7 (8H)-yl)benzonitrile, reference compound]
IC50 [1]: > 10000 nM

N#Cc1cc(C(F)(F)F)ccc1N1CCc2c(ncnc2Nc2ccc(C(=O)NCC(F)(F)F)cn2)C1 [Comparative Example 8, 6-((7-(2-Cyano-4-(trifluoromethyl)phenyl)-5,6,7,8-tetrahydropyrido[3,4-d]pyrimidin-4-yl)amino)-N-(2,2,2-trifluoroethyl)nicotinamide, reference compound]
IC50 [1]: > 10000 nM

N#Cc1ccc(C(F)(F)F)cc1N1CCc2c(ncnc2Nc2ccc(C(=O)NCC(F)(F)F)cn2)C1 [Comparative Example 9, 6-((7-(2-Cyano-5-(trifluoromethyl)phenyl)-5,6,7,8-tetrahydropyrido[3,4-d]pyrimidin-4-yl)amino)-N-(2,2,2-trifluoroethyl)nicotinamide, reference compound]
IC50 [1]: > 10000 nM

N#Cc1cccc(N2CCc3c(ncnc3Nc3ccc(C(=O)NCC(F)(F)F)cn3)C2)c1C(F)(F)F [Comparative Example 10, 6-((7-(3-Cyano-2-(trifluoromethyl)phenyl)-5,6,7,8-tetrahydropyrido[3,4-d]pyrimidin-4-yl)amino)-N-(2,2,2-trifluoroethyl)nicotinamide, reference compound]
IC50 [1]: > 10000 nM

CC(C)(O)c1ccc(Nc2ncnc3c2CCN(c2ccc(C#N)cc2)C3)nc1 [Comparative Example 11, 4-(4-((5-(2-Hydroxypropan-2-yl)pyridin-2-yl)amino)-5,6-dihydropyrido[3,4-d]pyrimidin-7(8H)-yl)benzonitrile, reference compound]
IC50 [1]: > 10000 nM
antagonist activity for AR (in words) ([1]; COS-7 reporter assay): did not show the antagonist activity for AR

N#Cc1ccc(N2CCc3c(ncnc3Nc3ccc(OCCn4ccnn4)nc3)C2)cc1C(F)(F)F [Example 15, 4-(4-((6-(2-(1H-1,2,3-Triazol-1-yl)ethoxy)pyridin-3-yl)amino)-5,6-dihydropyrido[3,4-d]pyrimidin-7 (8H)-yl)-2-(trifluoromethyl)benzonitrile]
IC50 [1]: 130 nM
Cell proliferation rate (%) [2]: 0.3%

N#Cc1ccc(N2CCc3c(ncnc3Nc3ccc(NC(=O)OCC(F)(F)F)cn3)C2)cc1C(F)(F)F [Example 21, 2,2,2-Trifluoroethyl (6-((7-(4-cyano-3-(trifluoromethyl)phenyl)-5,6,7,8,-tetrahydropyrido[3,4-d]pyrimidin-4-yl)amino)pyridin-3-yl)carbamate]
IC50 [1]: 380 nM
Cell proliferation rate (%) [2]: −0.6%

N#Cc1ccc(N2CCc3c(ncnc3Nc3ccc(CC(=O)NCC(F)(F)F)cn3)C2)cc1C(F)(F)F [Example 22, 2-(6-((7-(4-Cyano-3-(trifluoromethyl)phenyl)-5,6,7,8-tetrahydropyrido[3,4-d]pyrimidin-4-yl)amino)pyridin-3-yl)-N-(2,2,2-trifluoroethyl)acetamide]
IC50 [1]: 370 nM

N#Cc1ccc(N2CCc3c(ncnc3Nc3ncc(C(=O)NCC(F)(F)F)nn3)C2)cc1C(F)(F)F [Example 25, 3-((7-(4-Cyano-3-(trifluoromethyl)phenyl)-5,6,7,8-tetrahydropyrido[3,4-d]pyrimidin-4-yl)amino)-N-(2,2,2-trifluoroethyl)-1,2,4-triazine-6-carboxamide]
IC50 [1]: 3320 nM
Cell proliferation rate (%) [2]: 6.3%

N#Cc1ccc(N2CCc3c(ncnc3Nc3cc(C(=O)NCC(F)(F)F)ccn3)C2)cc1C(F)(F)F [Example 31, 2-((7-(4-Cyano-3-(trifluoromethyl)phenyl)-5,6,7,8-tetrahydropyrido[3,4-d]pyrimidin-4-yl)amino)-N-(2,2,2-trifluoroethyl)isonicotinamide]
IC50 [1]: 390 nM

CC(C)(O)C1CCN(C(=O)c2nnc(Nc3ncnc4c3CCN(c3ccc(C#N)c(C(F)(F)F)c3)C4)o2)CC1 [Example 43, 4-(4-((5-(4-(2-Hydroxypropan-2-yl)piperidin-1-carbonyl)-1,3,4-oxadiazol-2-yl)amino)-5,6-dihydropyrido[3,4-d]pyrimidin-7(8H)-yl)-2-(trifluoromethyl)benzonitrile]
IC50 [1]: 790 nM

CC(C)(O)c1cnc(Nc2ncnc3c2CCN(c2ccc(C#N)c(Cl)c2)C3)cc1F [Example 45, 2-Chloro-4-(4-((4-fluoro-5-(2-hydroxypropan-2-yl)pyridin-2-yl)amino)-5,6-dihydropyrido[3,4-d]pyrimidin-7 (8H)-yl)benzonitrile]
IC50 [1]: 940 nM

N#Cc1ccc(N2CCc3c(ncnc3Nc3ccc(C(=O)NCC(F)F)nc3)C2)cc1C(F)(F)F [Example 48, 5-((7-(4-Cyano-3-(trifluoromethyl)phenyl)-5,6,7,8-tetrahydropyrido[3,4-d]pyrimidin-4-yl)amino)-N-(2,2-difluoroethyl)picolinamide]
IC50 [1]: 490 nM
Cell proliferation rate (%) [2]: −2.6%

CC(C)(COc1ccc(Nc2ncnc3c2CCN(c2ccc(C#N)c(Cl)c2)C3)nc1)n1cnnn1 [Example 53, 2-Chloro-4-(4-((5-(2-methyl-2-(1H-tetrazol-1-yl)propoxy)pyridin-2-yl)amino)-5,6-dihydropyrido[3,4-d]pyrimidin-7(8H)-yl)benzonitrile]
IC50 [1]: 55 nM

COc1ccc(Nc2ncnc3c2CCN(c2ccc(C#N)c(Cl)c2)C3)cc1 [Example 54, 2-Chloro-4-(4-((4-methoxyphenyl)amino)-5,6-dihydropyrido[3,4-d]pyrimidin-7(8H)-yl)benzonitrile]
Cell proliferation rate (%) [2]: 3.4%

COc1cccc(Nc2ncnc3c2CCN(c2ccc(C#N)c(Cl)c2)C3)c1 [Example 55, 2-Chloro-4-(4-((3-methoxyphenyl)amino)-5,6-dihydropyrido[3,4-d]pyrimidin-7(8H)-yl)benzonitrile]
Cell proliferation rate (%) [2]: 1.0%

N#Cc1ccc(N2CCc3c(ncnc3Nc3ccc(C4(O)CCC4)c(F)n3)C2)cc1Cl [Example 56, 2-Chloro-4-(4-((6-fluoro-5-(1-hydroxycyclobutyl)pyridin-2-yl)amino)-5,6-dihydropyrido[3,4-d]pyrimidin-7 (8H)-yl)benzonitrile]
IC50 [1]: 840 nM
Cell proliferation rate (%) [2]: 8.0%

CC(O)c1ccc(Nc2ncnc3c2CCN(c2ccc(C#N)c(C(F)(F)F)c2)C3)cc1 (centres unmarked) [Example 58]
Cell proliferation rate (%) [2]: 2.0%
